Measurements published in patent US8293802B2, “Gentle-acting skin-disinfectants and hydroalcoholic gel formulations” (The Trustees of Columbia University, priority 2001, dated 2012).
Where two headings read alike, the source gives them in different places.

Legend:
S. aureus = assay: Rapid antimicrobial activity: test gel/base mixed with culture and bovine adult serum, 15 seconds, colony count; format: cell-based, Staphylococcus aureus; details: for Growth (CFU/ml) / S. aureus (cfu/tube): control 1 × 10^8; for Growth (cfu/tube): Table 7, control (without gel base) 2.5-4.2 × 10^8; for antimicrobial activity against S. aureus (in words): Tables 1 and 2
Description: Antimicrobial activity was evaluated using the following assay. 1 milliliter of 10^8 colony-forming units (“cfus”) of test organism per milliliter was added to 1 milliliter of bovine adult serum in a sterile culture tube and mixed. 1 milliliter of the test gel was added to each tube, and was vortexed to mix. After 15 seconds, three 0.5 ml aliquots were removed and further diluted 1:1000 with LTSB (lecithin-containing trypticase soy broth) drug-inactivating medium, and, of the resulting liquid, 0.5 milliliters were plated on each trypticase soy agar (“TSA”) plate. The resulting plates were incubated at 37° C. for 24 hours and the colony count per tube was determined.

[1] = at 22° C.; cited from earlier work
[2] = Table 5, alcohol gel base, 15 seconds
[3] = Table 3, alcohol gel base, 15 seconds
[4] = Table 10, aqueous base of Example 8, 15 seconds, aqueous base control 5.0 × 10^8
[5] = Table 1, alcohol gel base of Example 1, 15 seconds, bovine adult serum
[6] = Table 1, alcohol gel base, 15 seconds
[7] = Table 2, alcohol gel base, 15 seconds

## Oc1cc(Cl)ccc1Oc1ccc(Cl)cc1Cl [0.3% TC, triclosan]
S. aureus; [2]
  fold reduction relative to control: 0 fold
  Growth (CFU/ml): 1.0 × 10^8 CFU/ml

## N=C(NCCCCCCNC(=N)NC(=N)Nc1ccc(Cl)cc1)NC(=N)Nc1ccc(Cl)cc1.O=C(O)[C@H](O)[C@@H](O)[C@H](O)[C@H](O)CO.O=C(O)[C@H](O)[C@@H](O)[C@H](O)[C@H](O)CO [0.05% CHG, chlorhexidine digluconate]
S. aureus; [3]
  Log 10 cfu reduction relative to control: 1.0 log 10
  fold reduction relative to control: 9 fold
  S. aureus (cfu/tube): 1.1 × 10^7 cfu/tube
S. aureus; [2]
  fold reduction relative to control: 9 fold
  Growth (CFU/ml): 1.1 × 10^7 CFU/ml
S. aureus; alcohol gel base, 15 seconds
  Growth (cfu/tube): 1.1 × 10^7 cfu/tube
S. aureus; [4]
  Staphylococcus aureus (CFU/tube): 2.5 × 10^8 CFU/tube

## N=C(NCCCCCCNC(=N)NC(=N)Nc1ccc(Cl)cc1)NC(=N)Nc1ccc(Cl)cc1.O=C(O)[C@H](O)[C@@H](O)[C@H](O)[C@H](O)CO.O=C(O)[C@H](O)[C@@H](O)[C@H](O)[C@H](O)CO [0.5% CHG, chlorhexidine digluconate]
S. aureus; [3]
  Log 10 cfu reduction relative to control: 1.4 log 10
  fold reduction relative to control: 23.8 fold
  S. aureus (cfu/tube): 4.2 × 10^6 cfu/tube

## CCCCC(CC)COCC(O)CO (stereo not drawn) [0.5% Sensiva, glycerol 1-(2-ethylhexyl)ether]
S. aureus; [5]
  S. aureus (cfu/tube): 1 × 10^7 cfu/tube
S. aureus; [6]
  fold-reduction relative to control: 2.5 fold
S. aureus; alcohol gel base, 15 seconds
  Growth (cfu/tube): 4.0 × 10^7 cfu/tube

## CC(C)(C)CC(C)(C)c1ccc(OCCOCC[N+](C)(C)Cc2ccccc2)cc1 [0.12% BZT, benzethonium chloride]
S. aureus; [2]
  fold reduction relative to control: 10 fold
  Growth (CFU/ml): 1.0 × 10^7 CFU/ml

## N=C(NCCCCCCNC(=N)NC(=N)Nc1ccc(Cl)cc1)NC(=N)Nc1ccc(Cl)cc1.O=C(O)[C@H](O)[C@@H](O)[C@H](O)[C@H](O)CO.O=C(O)[C@H](O)[C@@H](O)[C@H](O)[C@H](O)CO [0.25% CHG, chlorhexidine digluconate]
S. aureus; [3]
  Log 10 cfu reduction relative to control: 1.1 log 10
  fold reduction relative to control: 12.5 fold
  S. aureus (cfu/tube): 8 × 10^6 cfu/tube

## Clc1ccc(COC(Cn2ccnc2)c2ccc(Cl)cc2Cl)c(Cl)c1 (stereo not drawn) [1.0% Miconazole, miconazole]
S. aureus; [2]
  fold reduction relative to control: 0 fold
  Growth (CFU/ml): 1.0 × 10^8 CFU/ml

## CCCCC(CC)COCC(O)CO (stereo not drawn) [1.0% Sensiva, glycerol 1-(2-ethylhexyl)ether]
S. aureus; [5]
  S. aureus (cfu/tube): 4 × 10^7 cfu/tube
S. aureus; [6]
  fold-reduction relative to control: 9 fold
S. aureus; [7]
  Log 10 cfu reduction relative to control: 1 log 10
  fold reduction relative to control: 10 fold
  S. aureus (cfu/tube): 4 × 10^7 cfu/tube
S. aureus; alcohol gel base, 15 seconds
  Growth (cfu/tube): 1.0 × 10^7 cfu/tube
S. aureus; [4]
  Staphylococcus aureus (CFU/tube): 5.0 × 10^8 CFU/tube

## CCCCC(CC)COCC(O)CO (stereo not drawn) [2.0% Sensiva, glycerol 1-(2-ethylhexyl)ether]
S. aureus; [5]
  S. aureus (cfu/tube): 3 × 10^6 cfu/tube
S. aureus; [6]
  fold-reduction relative to control: 33 fold
S. aureus; [7]
  Log 10 cfu reduction relative to control: 1.5 log 10
  fold reduction relative to control: 33 fold
  S. aureus (cfu/tube): 3 × 10^6 cfu/tube
S. aureus; [2]
  fold reduction relative to control: 33 fold
  Growth (CFU/ml): 3 × 10^6 CFU/ml
S. aureus; Table 6, alcohol gel base, 15 seconds
  Fold Reduction Compared to Control: 33 fold
S. aureus; Table 6, alcohol gel base, 15 seconds, control 1.0 × 10^8
  Growth (CFU/ML): 3.0 × 10^6 CFU/ML

## CCCCC(CC)COCC(O)CO (stereo not drawn) [3.0% Sensiva, glycerol 1-(2-ethylhexyl)ether]
S. aureus; [5]
  S. aureus (cfu/tube): 1 × 10^6 cfu/tube
S. aureus; [6]
  fold-reduction relative to control: 100 fold

## CCCCC(CC)COCC(O)CO (stereo not drawn) [5.0% Sensiva, glycerol 1-(2-ethylhexyl)ether]
S. aureus; [5]
  S. aureus (cfu/tube): 1 × 10^6 cfu/tube
S. aureus; [6]
  fold-reduction relative to control: 100 fold

## CCCCC(CC)COCC(O)CO (stereo not drawn) [Sensiva SC 50, glycerol 1-(2-ethylhexyl)ether]
[1]
  water solubility: approximately 1.8 g/l

## benzalkonium chloride [0.5% BZK]
S. aureus; [7]
  Log 10 cfu reduction relative to control: 1.4 log 10
  fold reduction relative to control: 27 fold
  S. aureus (cfu/tube): 3.7 × 10^6 cfu/tube

## benzalkonium chloride [0.12% BZK]
S. aureus; [7]
  Log 10 cfu reduction relative to control: 0.8 log 10
  fold reduction relative to control: 6.25 fold
  S. aureus (cfu/tube): 1.6 × 10^7 cfu/tube
S. aureus; [2]
  fold reduction relative to control: 6.25 fold
  Growth (CFU/ml): 1.6 × 10^7 CFU/ml
S. aureus; alcohol gel base, 15 seconds
  Growth (cfu/tube): 1.6 × 10^7 cfu/tube
S. aureus; [4]
  Staphylococcus aureus (CFU/tube): 2.0 × 10^8 CFU/tube
S. aureus; alcohol gel base
  antimicrobial activity against S. aureus (in words): minimal or no antimicrobial activity

## benzalkonium chloride [0.019% BZK]
S. aureus; alcohol gel base, 15 seconds
  Growth (cfu/tube): 8.0 × 10^7 cfu/tube

## benzalkonium chloride [0.19% BZK]
S. aureus; [7]
  Log 10 cfu reduction relative to control: 0.7 log 10
  fold reduction relative to control: 5 fold
  S. aureus (cfu/tube): 2 × 10^7 cfu/tube
S. aureus; alcohol gel base
  antimicrobial activity against S. aureus (in words): minimal or no antimicrobial activity

## neomycin [0.3% Neomycin]
S. aureus; [2]
  fold reduction relative to control: 4.3 fold
  Growth (CFU/ml): 2.3 × 10^7 CFU/ml

## polyhexamethylene biguanide [0.3% PHMB]
S. aureus
  Staphylococcus aureus (CFU/tube): 1.0 × 10^7 CFU/tube
S. aureus; [2]
  fold reduction relative to control: 33 fold
  Growth (CFU/ml): 3.0 × 10^6 CFU/ml

## povidone iodine [1.0% PVI]
S. aureus; [2]
  fold reduction relative to control: 5 fold
  Growth (CFU/ml): 2.0 × 10^7 CFU/ml
